Results reported in ChEMBL document CHEMBL1136813, “Bivalent biogenic amine reuptake inhibitors” (Bioorg Med Chem Lett, 2003).

Experiments:
[1] = molecular target: T1, Sodium-dependent dopamine transporter (Homo sapiens, UniProt Q01959); experiment: Compound was tested for inhibition of [3H]DA binding to dopamine (DAT) transporter in HEK cells; assay type: cell-based, HEK293
[2] = molecular target: T1, Sodium-dependent dopamine transporter; experiment: Compound was tested for inhibition of [125I]RTI-55 binding to dopamine transporter in HEK cells; assay type: cell-based, HEK293
[3] = molecular target: T2, Sodium-dependent noradrenaline transporter (Homo sapiens, UniProt P23975); experiment: Ratio of uptake inhibition to binding affinity to human NET (IC50/Ki)
[4] = molecular target: T2, Sodium-dependent noradrenaline transporter; experiment: Compound was tested for inhibition of [125I]-RTI-55 binding to norepinephrine transporter HEK cells; assay type: cell-based, HEK293
[5] = molecular target: T3, Sodium-dependent serotonin transporter (Homo sapiens, UniProt P31645); experiment: Ratio of uptake inhibition to binding affinity to human SERT (IC50/Ki)
Target sequence in this assay (P31645 whole entry, looked up): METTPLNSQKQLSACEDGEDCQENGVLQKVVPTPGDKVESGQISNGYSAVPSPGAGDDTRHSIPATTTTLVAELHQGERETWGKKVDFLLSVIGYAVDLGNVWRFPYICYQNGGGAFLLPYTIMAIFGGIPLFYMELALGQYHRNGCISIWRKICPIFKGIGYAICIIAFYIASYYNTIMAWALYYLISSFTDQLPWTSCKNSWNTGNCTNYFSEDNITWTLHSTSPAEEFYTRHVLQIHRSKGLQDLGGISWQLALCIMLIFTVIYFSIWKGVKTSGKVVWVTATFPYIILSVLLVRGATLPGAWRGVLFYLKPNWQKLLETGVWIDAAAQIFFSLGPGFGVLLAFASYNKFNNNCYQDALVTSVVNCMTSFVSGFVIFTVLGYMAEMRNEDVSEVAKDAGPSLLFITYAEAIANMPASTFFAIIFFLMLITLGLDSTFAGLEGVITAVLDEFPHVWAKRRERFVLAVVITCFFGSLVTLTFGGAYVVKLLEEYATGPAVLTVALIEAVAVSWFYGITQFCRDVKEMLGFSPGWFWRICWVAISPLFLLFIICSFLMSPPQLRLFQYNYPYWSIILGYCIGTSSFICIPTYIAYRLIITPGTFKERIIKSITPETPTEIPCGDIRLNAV

[6] = molecular target: T3, Sodium-dependent serotonin transporter; experiment: Compound was tested for inhibition of [125I]RTI-55 binding to Serotonin transporter in HEK cells; assay type: cell-based, HEK293
Target sequence in this assay (P31645 whole entry): as the sequence (P31645 whole entry, looked up) above

[7] = molecular target: T3, Sodium-dependent serotonin transporter; experiment: Compound was tested for inhibition of [3H]5-HT binding to Serotonin transporter in HEK cells; assay type: cell-based, HEK293
Target sequence in this assay (P31645 whole entry): as the sequence (P31645 whole entry, looked up) above

[8] = molecular target: T2, Sodium-dependent noradrenaline transporter; experiment: Compound was tested for inhibition of [3H]NE binding to norepinephrine transporter HEK cells; assay type: cell-based, HEK293
[9] = molecular target: T1, Sodium-dependent dopamine transporter; experiment: Ratio of uptake inhibition to binding affinity to human DAT (IC50/Ki)

T1 sequence (Q01959 whole entry): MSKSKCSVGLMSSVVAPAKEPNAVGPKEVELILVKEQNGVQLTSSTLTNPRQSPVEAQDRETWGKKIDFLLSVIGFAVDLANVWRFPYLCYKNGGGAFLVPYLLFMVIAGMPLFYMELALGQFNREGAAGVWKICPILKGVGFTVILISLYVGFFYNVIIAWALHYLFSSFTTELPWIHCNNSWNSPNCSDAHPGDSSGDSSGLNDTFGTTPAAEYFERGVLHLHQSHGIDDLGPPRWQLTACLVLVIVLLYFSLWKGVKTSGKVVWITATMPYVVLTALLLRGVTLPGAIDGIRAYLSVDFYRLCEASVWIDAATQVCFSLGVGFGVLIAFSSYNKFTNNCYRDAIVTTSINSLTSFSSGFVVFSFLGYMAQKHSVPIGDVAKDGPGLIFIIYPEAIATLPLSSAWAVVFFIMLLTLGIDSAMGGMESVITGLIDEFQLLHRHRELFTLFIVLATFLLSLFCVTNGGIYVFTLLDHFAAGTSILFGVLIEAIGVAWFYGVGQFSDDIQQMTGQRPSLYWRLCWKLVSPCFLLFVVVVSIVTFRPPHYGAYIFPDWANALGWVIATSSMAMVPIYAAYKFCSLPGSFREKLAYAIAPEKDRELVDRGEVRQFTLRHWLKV
T2 sequence (P23975 whole entry): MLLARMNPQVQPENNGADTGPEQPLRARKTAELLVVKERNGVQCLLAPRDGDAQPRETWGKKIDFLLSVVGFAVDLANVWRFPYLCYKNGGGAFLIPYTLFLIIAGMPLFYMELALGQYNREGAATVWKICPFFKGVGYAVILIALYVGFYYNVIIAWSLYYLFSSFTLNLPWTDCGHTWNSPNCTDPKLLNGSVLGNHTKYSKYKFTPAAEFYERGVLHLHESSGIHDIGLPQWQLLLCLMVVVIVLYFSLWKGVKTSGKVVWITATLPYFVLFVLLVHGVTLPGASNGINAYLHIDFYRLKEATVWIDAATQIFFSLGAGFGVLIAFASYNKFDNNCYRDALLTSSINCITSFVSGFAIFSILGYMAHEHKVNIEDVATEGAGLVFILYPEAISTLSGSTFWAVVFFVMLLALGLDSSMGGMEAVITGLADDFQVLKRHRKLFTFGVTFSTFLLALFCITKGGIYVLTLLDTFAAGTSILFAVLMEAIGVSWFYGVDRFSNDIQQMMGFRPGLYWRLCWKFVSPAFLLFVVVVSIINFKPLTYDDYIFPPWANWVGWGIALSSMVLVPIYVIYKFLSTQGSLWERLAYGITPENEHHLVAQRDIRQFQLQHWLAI

| Compound | IC50 [1] [nM] | Ki [2] [nM] | Ratio [3] | Ki [4] [nM] | Ratio [5] | Ki [6] [nM] | IC50 [7] [nM] | IC50 [8] [nM] | Ratio [9] |
| --- | --- | --- | --- | --- | --- | --- | --- | --- | --- |
| COC(=O)C1C(c2ccc(Cl)cc2)CC2CCC1N2C (configuration not stated) | 1.7 | 1.1 |  |  |  |  |  |  |  |
| CN1C2CCC1C(C(=O)NCCCCCCNC(=O)C1C(c3ccc(Cl)cc3)CC3CCC1N3C)C(c1ccc(Cl)cc1)C2 (configuration not stated) | 1400 | 18.4 | 5.59 | 330 | 2.2 | 102 | 225 | 1850 | 76.3 |
| CN1C2CCC1C(C(=O)NCCCCNC(=O)C1C(c3ccc(Cl)cc3)CC3CCC1N3C)C(c1ccc(Cl)cc1)C2 (configuration not stated) | 1670 | 21.7 | 1.09 | 2070 | 0.06 | 3140 | 176 | 2260 | 76.8 |
| CN1C2CCC1C(C(=O)NCCCNC(=O)C1C(c3ccc(Cl)cc3)CC3CCC1N3C)C(c1ccc(Cl)cc1)C2 (configuration not stated) | 52.2 | 65.1 | 0.09 | 2970 | 1.17 | 357 | 441 | 266 | 0.8 |
| CN1C2CCC1C(C(=O)NCCCCCCCCNC(=O)C1C(c3ccc(Cl)cc3)CC3CCC1N3C)C(c1ccc(Cl)cc1)C2 (configuration not stated) | 871 | 6.7 |  | 830 | 12.5 | 7.9 | 99 | 487 | 130 |
